Key:
[1] = solubility and behaviour in water; format: physicochemical
Source text: The present inventors have attempted to prepare a medicament comprising (2R)-2-propyloctanoic acid or a salt thereof in a high concentration, which is useful for the treatment of neurodegenerative diseases including cerebral infarction, and which can be formulated to an injection which can be conveniently administered to a patient, if necessary, by means of the dissolution or dilution operation. […] The inventors have conducted studies to solve these problems and have found as a result that (2R)-2-propyloctanoic acid can be dissolved in water in a high concentration by mixing it with a strong alkali such as sodium hydroxide. […] Moreover, the solution in a high concentration was difficult to be stored for a long period of time because of the appearance of insoluble allotrio within the solution under long-term storage in conventional glass containers. Thus, there are problems in using a drug which is sensitive to a change in the drug concentration or in the pH of the solution, leading to a change such as clouding. That is, there is in fact the risk of clouding of the drug, upon preparing an injection which can be administered to a patient, by direct manipulation of a person involved in medical services, for combined use with other agents, or during the action of intravascular administration to a patient. […]

dog = test: single intravenous administration toxicity using a dog; format: in vivo; details: dose of 100 mg/kg
[2] = confirmation test of micelle formation (fat staining with Sudan III, absorbance of supernatant); format: physicochemical
Source text: The fat staining method includes, for example, a method of mixing a solution of a fat-soluble dye (for example, Sudan III, piacyanol chloride, Rhodamine 6G, etc.) with the solution under test, followed by centrifugation after a certain period of time, and measuring the absorbance of the supernatant which is inherent to the fat-soluble dye used. If the absorbance of the supernatant can be measured according to this test method, it implies that the fat-soluble dye is present within micelles, that is, micelles have been formed, and thus it is possible to determine that a micelle water dispersion liquid has been formed. It is also possible to define the critical concentration of micelle formation, that is, a critical micelle concentration (CMC), by means of such a test.
The critical micelle concentration cannot be exactly determined since it depends on the substance forming micelles, the type of co-existing ions and the concentration thereof, the ionic strength, and even on temperature. […]
Into a spitz made of glass, the Sudan III solution prepared in the above (2) (400 μL) was added, and ethanol was evaporated Each of the (2R)-2-propyloctanoic acid solutions of various concentrations prepared in the above (1) was added thereto, and the mixture was subjected to sonication and stirring. […] The absorbance of the supernatant was measured at a wavelength of 502 nm.

| Compound | pH and clouding of solution in water ([1]; dissolved in water) | death after single intravenous administration (dog) | critical micelle concentration ([2]; aqueous medicament comprising about 1 to about 5 equivalents of basic sodium ion based on 1 equivalent of (2R)-2-propyloctanoic acid, room temperature) | concentration at which micelle formation occurred ([2]; aqueous solution with trisodium phosphate dodecahydrate, Sudan III, left at room temperature for 1 day, absorbance at 502 nm) | solubility in water ([1]; water) |
| --- | --- | --- | --- | --- | --- |
| CCCCCC[C@@H](CCC)C(=O)[O-].[Na+] [(2R)-2-propyloctanoic acid-sodium salt] | has a high pH and is susceptible to clouding under slight fluctuations of the pH | – | – | – | – |
| CCCCCC[C@@H](CCC)C(=O)O [(2R)-2-propyloctanoic acid] | – | did not result in death | 20 to 25 mg/mL | about 20 mg/mL | insoluble and immiscible in water |

— patent publication US8053599B2, “Drug containing (2R)-2-propyloctanoic acid as the active ingredient” (Ono Pharmaceutical Co., Ltd., priority 2003, dated 2011)
